Measurements taken from patent US20220288057A1, “CONJOINT THERAPY FOR TREATING SEIZURE DISORDERS” (XENON PHARMACEUTICALS INC., priority 2021, published 2022).
Where “and” joins values, the source holds several entries; their conditions need not be identical. Equal values may be shown once. Read-outs that look alike come from different tables or passages of the source.

Legend:
[1] = Terminal plasma and brain concentrations in AC-MES studies (UHPLC-MS/MS); type: in vivo, mouse; conditions: male, CF-1, mouse, in vivo, po; for Kp at 0.5 h: read-out: B/P Ratio; for Kp at 30 min: read-out: B/P Ratio (brain to plasma ratio); for concentration at 30 min: CF-1 mice
Description: Sample Collection and Preparation: Mice were anesthetized by isoflurane inhalation (according to SOP TECH-018) until they reached a surgical plane of anesthesia. Then a syringe (1 mL syringe with a 22 gauge needle) was inserted under the sternum into the heart (according to SOP TECH-031). Approximately 0.5 mL of blood was collected, deposited into a K2EDTA tube, and stored on ice. Animals were then euthanized by cervical dislocation. Brains were removed, placed into a pre-weighed vial, and snap frozen on dry ice. At the end of the sample collection, blood was centrifuged at 4000 rpm for 10 minutes at 4° C., and the plasma pipetted into a labeled tube. All samples were stored in a −80° C. freezer until the time of bioanalysis.
Plasma Samples: Extraction of plasma samples was carried out by protein precipitation using acetonitrile. Diluted plasma samples (50 μL) were mixed with 50 μL of internal standard (IS) solution in 1:1 acetonitrile:water (v:v) followed by addition of 200 μL of acetonitrile. Samples were vortexed for 30 seconds, centrifuged at 13,000 rpm for 20 minutes, decanted into a 96-well plate and further centrifuged at 4000 rpm for 20 minutes. The samples were analyzed by ultra-high performance liquid chromatography electrospray ionization tandem mass spectrometry (UHPLC-ESI-MS/MS) as described in the bioanalysis procedure below.
Brain Samples: Prior to extraction, pre-weighed whole brains were homogenized in 1:1 acetonitrile:water (v:v) (2 mL per mouse brain) using an IKA T18 Ultra-Turrax Homogenizer at the setting of 4 for approximately 1 minute. The homogenate was centrifuged at 13,000 rpm for 20 minutes and 50 μL of the supernatant were treated exactly as described in above for plasma samples.
Bioanalysis Procedures: All samples, including plasma and brain homogenate extracts (including calibration standards and quality control (QC) samples prepared in K2EDTA mouse plasma), were extracted by protein precipitation. To each 50 μL aliquot of sample, 50 μL of IS solution (2500 ng/mL of Lacosamide in water:acetonitrile (1:1)) and 50 μL of 6% (v:v) phosphoric acid in water were added, then 200 μL acetonitrile was added. The samples in 1.7 mL tubes were vortex-mixed then centrifuged for 20 minutes at 13,000 rpm. Fifty microliters of the supernatant was mixed with 150 μL of water:acetonitrile (1:1) in a 96 well plate, which was centrifuged post-mixing for 20 minutes at 4000 rpm. The samples were then ready for UHPLC-MS/MS analysis.
Samples were analyzed for Compound A by a research-grade UHPLC-MS/MS method using the conditions listed below.
Samples were analyzed for Lacosamide by a research-grade UHPLC-MS/MS method using the conditions listed below.
At least three QC samples, one at each concentration, had to show back-calculated values within ±20% of their nominal concentrations for the whole sample batch to be valid.
(§1) The Blinding and Randomization, Clinical Observations, AC-MES Assay, Sample Collection and Preparation, Plasma and Brain Samples Analysis, and Bioanalysis Procedures in Example 4 were identical to those used in Example 2.
Sample concentration determination and Data Processing and Analysis in Example 4 was identical to Example 2.

CF-1 mouse = experiment: Clinical observations / behavioral signs in AC-MES studies; type: in vivo
Description: Any qualitative changes from normal behavior were recorded.
Five oral (PO) doses of Compound A were each tested in the AC-MES model. Thirty minutes after administration of Compound A at 1 mg/kg (n=8), 3 mg/kg (n=8), 5 mg/kg (n=16), 7.5 mg/kg (n=7), and 10 mg/kg (n=17) via oral gavage to male CF-1 mice (body weights 28.2 to 43.8 g), the mice underwent a 60 Hz corneal electrical stimulus (0.2 seconds duration, 40 mA). This stimulus elicited a tonic hindlimb extension in all vehicle-dosed animals. […] An observational neurological assessment (qualitative test) was also conducted at the time of testing as a tolerability screen. Terminal plasma and brain samples were collected from all animals to obtain the levels of Compound A concentration, and to understand the relationship between efficacy and drug concentration.
as §1

Compound: Cc1cc(N2CCc3cc(F)ccc3C2)cc(C)c1NC(=O)CC(C)(C)C [Compound A, N-[4-(6-fluoro-3,4-dihydro-1H-isoquinolin-2-yl)-2,6-dimethylphenyl]-3,3-dimethylbutanamide]
- Kp at 0.5 h ([1]; 5 mg/kg, Study 2B, Compound A 5 mg/kg PO): 1.51
- concentration at 0.5 h ([1]; 5 mg/kg, Study 2B, Compound A 5 mg/kg PO, read-out: Mean Brain): 710 nM
- concentration at 0.5 h ([1]; 5 mg/kg, Study 4A, Compound A 5 mg/kg PO, read-out: mean plasma concentration): 280 nM
- Kp at 30 min ([1]; 5 mg/kg, Study 4A, Compound A 5 mg/kg single oral dose): 1.45
- concentration at 0.5 h ([1]; 5 mg/kg, Study 4B, Compound A 5 mg/kg PO, read-out: mean plasma concentration): 470 nM
- concentration at 30 min ([1]; 5 mg/kg, Study 4B, Compound A 5 mg/kg single oral dose, read-out: Mean Brain): 710 nM
- concentration at 30 min ([1]; 5 mg/kg, Study 4B, Compound A 5 mg/kg single oral dose, read-out: Mean Plasma): 1000 nM
- Kp at 30 min ([1]; 5 mg/kg, Study 4B, Compound A 5 mg/kg single oral dose): 1.51
- Kp at 0.5 h ([1]; 7.5 mg/kg, Study 2B, Compound A 7.5 mg/kg PO): 1.64
- concentration at 0.5 h ([1]; 7.5 mg/kg, Study 2B, Compound A 7.5 mg/kg PO, read-out: Mean Brain): 870 nM
- concentration at 0.5 h ([1]; 7.5 mg/kg, Study 2B, Compound A 7.5 mg/kg PO, read-out: Mean Plasma): 530 nM
- concentration at 30 min ([1]; 7.5 mg/kg, Study 4B, Compound A 7.5 mg/kg single oral dose, read-out: Mean Brain): 870 nM
- concentration at 30 min ([1]; 7.5 mg/kg, Study 4B, Compound A 7.5 mg/kg single oral dose, read-out: Mean Plasma): 530 nM
- Kp at 30 min ([1]; 7.5 mg/kg, Study 4B, Compound A 7.5 mg/kg single oral dose): 1.64
- Kp at 0.5 h ([1]; 10 mg/kg, Study 2A, Compound A 10 mg/kg PO): 1.36
- concentration at 0.5 h ([1]; 10 mg/kg, Study 2A, Compound A 10 mg/kg PO, read-out: Mean Brain): 500 nM
- concentration at 0.5 h ([1]; 10 mg/kg, Study 2A, Compound A 10 mg/kg PO, read-out: Mean Plasma): 366 nM
- Kp at 0.5 h ([1]; 10 mg/kg, Study 2B, Compound A 10 mg/kg PO): 1.64
- concentration at 0.5 h ([1]; 10 mg/kg, Study 2B, Compound A 10 mg/kg PO, read-out: Mean Brain): 910 nM
- concentration at 0.5 h ([1]; 10 mg/kg, Study 2B, Compound A 10 mg/kg PO, read-out: Mean Plasma): 553 nM
- concentration at 0.5 h ([1]; 10 mg/kg, Study 4A, Compound A 10 mg/kg PO, read-out: mean plasma concentration): 370 nM
- Kp at 30 min ([1]; 10 mg/kg, Study 4A, Compound A 10 mg/kg single oral dose): 1.36
- concentration at 0.5 h ([1]; 10 mg/kg, Study 4B, Compound A 10 mg/kg PO, read-out: mean plasma concentration): 550 nM
- concentration at 30 min ([1]; 10 mg/kg, Study 4B, Compound A 10 mg/kg single oral dose, read-out: Mean Brain): 910 nM
- concentration at 30 min ([1]; 10 mg/kg, Study 4B, Compound A 10 mg/kg single oral dose, read-out: Mean Plasma): 550 nM
- Kp at 30 min ([1]; 10 mg/kg, Study 4B, Compound A 10 mg/kg single oral dose): 1.64
- Fraction with Behavioral Signs (CF-1 mouse; Study 2A, Compound A 1 mg/kg PO, 0.5 h): 0/8
- Fraction with Behavioral Signs (CF-1 mouse; Study 2A, Compound A 5 mg/kg PO, 0.5 h): 0/8
- Fraction with Behavioral Signs (CF-1 mouse; Study 2A, Compound A 10 mg/kg PO, 0.5 h): 1/8
- plasma concentration of individual mouse showing behavioral signs (tremors, decreased activity, splayed hindlimbs) (CF-1 mouse; Study 2A, Compound A 10 mg/kg group, 10 mg/kg): 390 nM
- Fraction with Behavioral Signs (CF-1 mouse; Study 2B, Compound A 5 mg/kg PO, 0.5 h): 0/8
- Fraction with Behavioral Signs (CF-1 mouse; Study 2B, Compound A 7.5 mg/kg PO, 0.5 h): 1/7
- plasma concentration of individual mouse showing behavioral signs (tremors, decreased activity, splayed hindlimbs) (CF-1 mouse; Study 2B, Compound A 7.5 mg/kg group, 7.5 mg/kg): 750 nM
- Fraction with Behavioral Signs (CF-1 mouse; Study 2B, Compound A 10 mg/kg PO, 0.5 h): 2/9
- plasma concentration of individual mouse showing behavioral signs (tremors, decreased activity, splayed hindlimbs) (CF-1 mouse; Study 2B, Compound A 10 mg/kg group, two mice, 10 mg/kg): 516 nM and 610 nM and 520 nM
- Fraction with Behavioral Signs (CF-1 mouse; Study 2C, Compound A 3 mg/kg PO, 0.5 h, alone): 0/8
- plasma concentration of individual mouse showing behavioral signs (tremors, decreased activity, splayed hindlimbs) (CF-1 mouse; Study 4A, Compound A 10 mg/kg group): 390 nM
- Behavioral Signs (fraction) (CF-1 mouse; Study 4A, Compound A 1 mg/kg single oral dose): 0/8
- Behavioral Signs (fraction) (CF-1 mouse; Study 4A, Compound A 5 mg/kg single oral dose): 0/8
- Behavioral Signs (fraction) (CF-1 mouse; Study 4A, Compound A 10 mg/kg single oral dose): 1/8
- plasma concentration of individual mouse showing behavioral signs (tremors, decreased activity, splayed hindlimbs) (CF-1 mouse; Study 4B, Compound A 7.5 mg/kg group): 750 nM
- plasma concentration of individual mouse showing behavioral signs (tremors, decreased activity, splayed hindlimbs) (CF-1 mouse; Study 4B, Compound A 10 mg/kg group, two mice, 10 mg/kg): 610 nM and 520 nM
- Fraction with Behavioral Signs (CF-1 mouse; Study 4B, Compound A 5 mg/kg single oral dose): 0/8
- Fraction with Behavioral Signs (CF-1 mouse; Study 4B, Compound A 7.5 mg/kg single oral dose): 1/7
- Fraction with Behavioral Signs (CF-1 mouse; Study 4B, Compound A 10 mg/kg single oral dose): 2/9
- Fraction with Behavioral Signs (CF-1 mouse; Study 4C, Compound A 3 mg/kg single oral dose): 0/8
- Fraction with Behavioral Signs (CF-1 mouse; Study 4F, Compound A 2 mg/kg PO alone): 0/8
